Results taken from PubChem BioAssay (NCI).
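Cultured in 96-well plates, cells were exposed to test compound for 48 hours across five concentrations. GI50 is the concentration that inhibits growth by half. TGI: concentration producing complete growth inhibition.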

Each compound was assayed on LOX IMVI melanoma (assay: NCI tumour cell line growth inhibition, 48 h).

| SMILES | TGI [µM] | GI50 [µM] |
| --- | --- | --- |
| COc1ccc2c3c1C(=O)CCCC3CO2 (configuration not stated) | > 100 | – |
| CCCCCN(CCCCC)CCCNc1c2c(nc3ccc(Cl)cc13)CCCC2 | 5.97 | 2.06 |
| O=S1(=O)c2ccccc2NC(c2ccc3ccccc3c2)CC1c1ccccc1F (configuration not stated) | > 100 | – |

Each compound was assayed on UACC-62 melanoma (assay: NCI tumour cell line growth inhibition, 48 h).

| SMILES | TGI [µM] | GI50 [µM] |
| --- | --- | --- |
| CCN(CCO)CC1CCCC2CCCCC21 (configuration not stated) | > 100 | – |
| COC1(OC)CCC2C1C1CCC(OC)(OC)C21 (configuration not stated) | > 50 | – |
| NNC(=O)Nc1cccnc1 | > 100 | – |
| CCCCCCCCCCCOc1ccc(C(=O)C(=O)c2ccc(OCCCCCCCCCCC)c(OCCCCCCCCCCC)c2)cc1OCCCCCCCCCCC | > 100 | – |
| CCOC(=O)C1=C(C)NC(=S)NC1c1ccccc1 (configuration not stated) | > 100 | – |
| O=C(/C=C/c1ccccc1)NC1C=Nc2ccc(Cl)cc2NC1=O (configuration not stated) | > 100 | – |
| COC1CCC2C(NS(=O)(=O)c3ccc(C)cc3)CCCC2O1 (configuration not stated) (tested in a mixture with another compound) | > 34.5 | – |
| CC(C)C/C(CC(=O)CCC(=O)Nc1ccccc1[N+](=O)[O-])=N\NC(=O)c1cc2ccccc2cc1O | 80.5 | – |
| O=C(O)c1ccccc1[Se][Se]c1ccccc1C(=O)O | 82.8 | – |
| CCCCC(=O)OCC(=O)[C@]1(O)Cc2c(O)c3c(c(O)c2[C@@H](OC2CC(NC(=O)C(F)(F)F)C(O)C(C)O2)C1)C(=O)c1c(OC)cccc1C3=O (some centres not stated) | 1.04 | – |
| O=C(O)CCc1coc2ccc(O)cc12 | > 100 | – |
| C[C@]12CC[C@H](O)CC1=CC[C@@H]1C2CC[C@]2(C)C(=O)N(N)C(=O)CC12 (some centres not stated) | > 100 | – |
| Clc1cc2nsnc2c(Cl)n1 | > 100 | – |
| N#CC1C(C#N)C2(c3ccccc3)C(c3ccccc3)=NN(c3ccccc3)CC12 (configuration not stated) | > 100 | – |
| COc1cc(Cc2cnc(/N=C3\C(=O)N(CN4CCN(c5c(F)cc6c(=O)c(C(=O)O)cn(C7CC7)c6c5OC)CC4C)c4ccc(F)cc43)nc2N)cc(OC)c1OC (configuration not stated) | 26 | 12.6 |
| C=C(CN1CCN(c2ccc(Cl)cc2F)CC1)c1ccc(C(=O)Nc2ccccc2N)cc1 | > 92.1 | 2.42 |
| Cc1cccc2c(=O)cc(-c3ccccc3)[nH]c12 | > 100 | – |
| COC(CN1C(=O)c2cccc3cccc(c23)C1=O)OC | > 100 | – |
| O=C(Nc1ccccc1)NS(=O)(=O)c1ccc(-n2nc3c(c2-c2cccs2)Cc2ccccc2-3)cc1 | 35 | 15.8 |
| CCCCOC(=O)C1OC(O[C@H]2CCC3(C)C(CCC4(C)C3CC=C3C5CC(C)(C)CCC5(C(=O)O)CC[C@]34C)C2(C)C)C(OC2OC(CO)C(O)C(O)C2O)C(OC2OC(CO)C(O)C(O)C2O)C1O (some centres not stated) | 36.1 | 20.9 |

| SMILES | TGI [µM] | GI50 [µM] |
| --- | --- | --- |
| Cc1nc2ccccc2c(=O)n1-c1ccccc1I | > 100 | – |
| O=C1C=C(Cl)C(=O)C(c2ccc(Cl)cc2)=C1 | 42.4 | – |
| CCOc1ccc(NC(=O)C(=O)CC(=O)c2c[n+](=O)c3cc(C)c(C)cc3n2[O-])cc1 | > 100 | – |
| CN1C(=O)C(C)(C)C2(SC(C)(C)C2(C)C)N(C)C1=S (configuration not stated) | > 100 | – |
| Cn1cc(C2=C(c3cn(C)c4ncccc34)C(=O)NC2=O)c2ccccc21 | > 25 | 11.7 |
| CC(=O)NNc1nc(C)c(C(=O)NNC(=O)C(=O)Nc2ccc(Cl)cc2)s1 | > 100 | – |
| CN/N=C(/Cc1occc(=O)c1O)C(=O)Nc1ccccc1C | > 100 | – |
| COc1cc(/C=N/NC(=O)c2ccc(C(F)(F)F)nc2Nc2ccc(Cl)cc2C)ccc1O | 5.01 | 1.88 |
| O=C(N/C(=C\c1ccc(/C=C(\NC(=O)c2ccccc2)c2nc3cc([N+](=O)[O-])ccc3[nH]2)cc1)c1nc2cc([N+](=O)[O-])ccc2[nH]1)c1ccccc1 | > 100 | – |
| COc1ccc(C(=O)Cn2c(C(=O)c3ccccc3)nc(-c3ccc(OC)cc3)c2-c2ccc(OC)cc2)cc1 | > 100 | 98.3 |
| CC1=C(C(=O)NCc2ccccc2)C(/C=C/c2ccccc2)C(C(=O)NCc2ccccc2)=C(C)N1 | > 100 | – |
| N#CCCN(CCC#N)c1ccc(/C=C2\N=C(c3cc([N+](=O)[O-])ccc3Cl)OC2=O)cc1 | > 100 | – |
| CC1(c2ccc(F)cc2)C(C#N)C(=O)NC(=O)C1C#N (configuration not stated) | > 100 | – |
| Cc1ccc(N=Nc2ccc(N(CCC#N)CCC#N)cc2C)c(Br)c1 | > 100 | – |
| COc1ccc2c3c1C(=O)CCCC3CO2 (configuration not stated) | > 100 | – |
| N#CC(c1ccc(Cl)cc1)c1cccc(C(C#N)c2ccc(Cl)cc2)n1 (configuration not stated) | > 100 | – |
| CCCCCN(CCCCC)CCCNc1c2c(nc3ccc(Cl)cc13)CCCC2 | 16.8 | 4.36 |
| Cn1c2ccccc2c2c(Nc3ccccc3)c3ccccc3nc21 | 18.6 | 4.56 |
| O=S1(=O)c2ccccc2NC(c2ccc3ccccc3c2)CC1c1ccccc1F (configuration not stated) | > 100 | – |

These compounds were tested on SF-295 CNS (assay: NCI tumour cell line growth inhibition, 48 h).

| SMILES | TGI [µM] | GI50 [µM] |
| --- | --- | --- |
| CCN(CCO)CC1CCCC2CCCCC21 (configuration not stated) | > 100 | – |
| COC1(OC)CCC2C1C1CCC(OC)(OC)C21 (configuration not stated) | > 50 | – |
| NNC(=O)Nc1cccnc1 | > 100 | – |
| CCCCCCCCCCCOc1ccc(C(=O)C(=O)c2ccc(OCCCCCCCCCCC)c(OCCCCCCCCCCC)c2)cc1OCCCCCCCCCCC | > 100 | – |
| CCOC(=O)C1=C(C)NC(=S)NC1c1ccccc1 (configuration not stated) | > 100 | – |
| O=C(/C=C/c1ccccc1)NC1C=Nc2ccc(Cl)cc2NC1=O (configuration not stated) | > 100 | – |
| COC1CCC2C(NS(=O)(=O)c3ccc(C)cc3)CCCC2O1 (configuration not stated) (tested in a mixture with another compound) | 21.4 | – |
| CC(C)C/C(CC(=O)CCC(=O)Nc1ccccc1[N+](=O)[O-])=N\NC(=O)c1cc2ccccc2cc1O | 99.8 | – |
| O=C(O)c1ccccc1[Se][Se]c1ccccc1C(=O)O | > 100 | – |
| CCCCC(=O)OCC(=O)[C@]1(O)Cc2c(O)c3c(c(O)c2[C@@H](OC2CC(NC(=O)C(F)(F)F)C(O)C(C)O2)C1)C(=O)c1c(OC)cccc1C3=O (some centres not stated) | 2.19 | – |
| O=C(O)CCc1coc2ccc(O)cc12 | > 100 | – |
| C[C@]12CC[C@H](O)CC1=CC[C@@H]1C2CC[C@]2(C)C(=O)N(N)C(=O)CC12 (some centres not stated) | > 100 | – |
| Clc1cc2nsnc2c(Cl)n1 | > 100 | – |
| N#CC1C(C#N)C2(c3ccccc3)C(c3ccccc3)=NN(c3ccccc3)CC12 (configuration not stated) | > 100 | – |
| COc1cc(Cc2cnc(/N=C3\C(=O)N(CN4CCN(c5c(F)cc6c(=O)c(C(=O)O)cn(C7CC7)c6c5OC)CC4C)c4ccc(F)cc43)nc2N)cc(OC)c1OC (configuration not stated) | 30.2 | 14.4 |
| C=C(CN1CCN(c2ccc(Cl)cc2F)CC1)c1ccc(C(=O)Nc2ccccc2N)cc1 | > 100 | 3.16 |
| CC(C)=CC(=O)C1c2cccc(O)c2C(=O)c2c(O)cc(C)cc21 (configuration not stated) | 3.39 | – |
| Cc1cccc2c(=O)cc(-c3ccccc3)[nH]c12 | 18.7 | – |
| COC(CN1C(=O)c2cccc3cccc(c23)C1=O)OC | > 100 | – |
| O=C(Nc1ccccc1)NS(=O)(=O)c1ccc(-n2nc3c(c2-c2cccs2)Cc2ccccc2-3)cc1 | 73.5 | 21.9 |
| CCCCOC(=O)C1OC(O[C@H]2CCC3(C)C(CCC4(C)C3CC=C3C5CC(C)(C)CCC5(C(=O)O)CC[C@]34C)C2(C)C)C(OC2OC(CO)C(O)C(O)C2O)C(OC2OC(CO)C(O)C(O)C2O)C1O (some centres not stated) | 71 | 26 |

| SMILES | TGI [µM] | GI50 [µM] |
| --- | --- | --- |
| Cc1nc2ccccc2c(=O)n1-c1ccccc1I | > 100 | – |
| O=C1C=C(Cl)C(=O)C(c2ccc(Cl)cc2)=C1 | > 100 | – |
| CCOc1ccc(NC(=O)C(=O)CC(=O)c2c[n+](=O)c3cc(C)c(C)cc3n2[O-])cc1 | > 100 | – |
| CN1C(=O)C(C)(C)C2(SC(C)(C)C2(C)C)N(C)C1=S (configuration not stated) | > 100 | – |
| Cn1cc(C2=C(c3cn(C)c4ncccc34)C(=O)NC2=O)c2ccccc21 | > 25 | 7.18 |
| CC(=O)NNc1nc(C)c(C(=O)NNC(=O)C(=O)Nc2ccc(Cl)cc2)s1 | > 100 | – |
| CN/N=C(/Cc1occc(=O)c1O)C(=O)Nc1ccccc1C | > 100 | – |
| COc1cc(/C=N/NC(=O)c2ccc(C(F)(F)F)nc2Nc2ccc(Cl)cc2C)ccc1O | 3.23 | 1.16 |
| O=C(N/C(=C\c1ccc(/C=C(\NC(=O)c2ccccc2)c2nc3cc([N+](=O)[O-])ccc3[nH]2)cc1)c1nc2cc([N+](=O)[O-])ccc2[nH]1)c1ccccc1 | > 100 | – |
| COc1ccc(C(=O)Cn2c(C(=O)c3ccccc3)nc(-c3ccc(OC)cc3)c2-c2ccc(OC)cc2)cc1 | > 100 | 42.5 |
| CC1=C(C(=O)NCc2ccccc2)C(/C=C/c2ccccc2)C(C(=O)NCc2ccccc2)=C(C)N1 | > 100 | – |
| N#CCCN(CCC#N)c1ccc(/C=C2\N=C(c3cc([N+](=O)[O-])ccc3Cl)OC2=O)cc1 | > 100 | – |
| CC1(c2ccc(F)cc2)C(C#N)C(=O)NC(=O)C1C#N (configuration not stated) | > 100 | – |
| Cc1ccc(N=Nc2ccc(N(CCC#N)CCC#N)cc2C)c(Br)c1 | 93.1 | – |
| Cc1cc(C)nc(NS(=O)(=O)c2ccc(NC(=O)c3ccc(Cl)c4c(Nc5ccc(S(=O)(=O)Nc6nc(C)cc(C)n6)cc5)c5ccccc5nc34)cc2)n1 | > 100 | – |
| COc1ccc2c3c1C(=O)CCCC3CO2 (configuration not stated) | > 100 | – |
| N#CC(c1ccc(Cl)cc1)c1cccc(C(C#N)c2ccc(Cl)cc2)n1 (configuration not stated) | > 100 | – |
| CCCCCN(CCCCC)CCCNc1c2c(nc3ccc(Cl)cc13)CCCC2 | 3.05 | 1.18 |
| Cn1c2ccccc2c2c(Nc3ccccc3)c3ccccc3nc21 | 23.8 | 5.62 |
| O=S1(=O)c2ccccc2NC(c2ccc3ccccc3c2)CC1c1ccccc1F (configuration not stated) | > 100 | – |
